Assay results: patent US20100063026A1, “ANTIBACTERIAL QUINOLINE DERIVATIVES” (priority 2007, published 2010)
In brackets after ≈: the same amount, converted by molar mass.

Key:
[1] = test system: Staphylococcus aureus (ATCC29213); assay: Microtitre plate IC90 determination against non-mycobacterial strains: S. aureus; format: cell-based; settings: 90% inhibitory concentration for bacterial growth, 37° C., resazurin fluorescence; for IC90 STA 1 B29213: 24 hours; for IC90: Staphylococcus aureus, ATCC29213, 24 h, read-out: IC90 STA 1 B29213
Method: (§1) The bacteria used in this study were grown overnight in flasks containing 100 ml Mueller-Hinton Broth (Becton Dickinson-cat. no. 275730) in sterile de-ionized water, with shaking, at 37° C. Stocks (0.5 ml/tube) were stored at -70° C. until use. Bacteria titrations were performed in microtiter plates to detect the TCID50, in which the TCID50 represents the dilution that gives rise to bacterial growth in 50% of inoculated cultures. In general, an inoculum level of approximately 100 TCID50 was used for susceptibility testing. […] Therefore resazurin (0.6 mg/ml) was added in a volume of 20 μl to all wells 3 hours after inoculation, and the plates were re-incubated overnight. A change in colour from blue to pink indicated the growth of bacteria.

[2] = test system: Streptococcus pneumoniae (ATCC6305); assay: Microtitre plate IC90 determination against non-mycobacterial strains: S. pneumoniae; format: cell-based; settings: 90% inhibitory concentration for bacterial growth, 37° C., resazurin fluorescence; for IC90: Streptococcus pneumoniae, ATCC6305, 24 h, read-out: IC90 SPN 1 6305; for IC90 SPN 1 6305: 24 hours
Method: as §1

M. smegmatis ATCC607 = assay: In-vitro anti-bacterial activity against strain M. smegmatis ATCC607; settings: for IC90 MSM 1 ATCC607: 90% inhibitory concentration for bacterial growth, 48 hours, 37° C., Alamar Blue fluorescence; for IC90: Mycolicibacterium smegmatis, ATCC607, 48 h, read-out: IC90 MSM 1 ATCC607, 90% inhibitory concentration for bacterial growth, 37° C., Alamar Blue fluorescence
Method: Flat-bottom, sterile 96-well plastic microtiter plates were filled with 180 μl of sterile deionized water, supplemented with 0.25% BSA. Subsequently, stock solutions (7.8× final test concentration) of compounds were added in 45 μl volumes to a series of duplicate wells in column 2 so as to allow evaluation of their effects on bacterial growth. Serial five-fold dilutions (45 μl in 180 μl) were made directly in the microtiter plates from column 2 to 11 using a customised robot system (Zymark Corp., Hopkinton, Mass.). Pipette tips were changed after every 3 dilutions to minimize pipetting errors with high hydrophobic compounds. Untreated control samples with (column 1) and without (column 12) inoculum were included in each microtiter plate. Approximately 250 CFU per well of bacteria inoculum, in a volume of 100 μl in 2.8× Mueller-Hinton broth medium, was added to the rows A to H, except column 12. The same volume of broth medium without inoculum was added to column 12 in row A to H. The cultures were incubated at 37° C. for 48 hours in a humidified 5% CO2 atmosphere (incubator with open air valve and continuous ventilation). At the end of incubation, two days after inoculation, the bacterial growth was quantitated fluorometrically. Therefore Alamar Blue (10×) was added to all wells in a volume of 20 μl and plates were incubated for another 2 hours at 50° C.
The fluorescence was read in a computer-controlled fluorometer (Cytofluor, Biosearch) at an excitation wavelength of 530 nm and an emission wavelength of 590 nm (gain 30). The percentage growth inhibition achieved by the compounds was calculated according to standard methods and expressed as IC90 (μg/ml) which defines the 90% inhibitory concentration for bacterial growth.

[3] = test system: Mycobacterium tuberculosis (strain H37RV); assay: In-vitro method for testing compounds against M. tuberculosis; format: cell-based; settings: 90% inhibitory concentration for bacterial growth, 7 days, 37° C., Resazurin fluorescence; for IC90: Mycobacterium tuberculosis, H37RV, 168 h, read-out: IC90 MTB 1 H37RV

| Structure (SMILES) | melting point [°C] | IC90 STA 1 B29213 [1] [µg/mL] | IC90 [2] [µg/mL] | IC90 MSM 1 ATCC607 (M. smegmatis ATCC607) [µg/mL] | IC90 [3] [µg/mL] | IC90 SPN 1 6305 [2] [µg/mL] | IC90 MTB 1 H37RV [3] [µg/mL] | IC90 [1] [µg/mL] | IC90 (M. smegmatis ATCC607) [µg/mL] |
| --- | --- | --- | --- | --- | --- | --- | --- | --- | --- |
| CN1CCCN(CCCCC(O)(c2ccc3ccccc3c2)C(c2ccccc2)c2cc3cc(Br)ccc3[nH]c2=O)CC1 (single isomer, unassigned) [Compound 50] | 210 | 10.1 (≈ 15.8 µM) | 4.5 (≈ 7.05 µM) | 2.3 (≈ 3.6 µM) |  |  |  |  |  |
| COc1nc2ccc(Br)cc2cc1C(c1ccccc1)C(O)(CCCCN1CC2CC1CN2Cc1ccccc1)c1ccc2ccccc2c1 (centres unmarked) [Compound 23] |  | 2.3 (≈ 3.16 µM) |  | 0.5 (≈ 0.688 µM) | 57.7 (≈ 79.4 µM) | 0.2 (≈ 0.275 µM) |  |  |  |
| COc1nc2ccc(Br)cc2cc1C(c1ccccc1)C(O)(CCCCN1CCC(N2CCCCC2)CC1)c1ccc2ccccc2c1 (single isomer, unassigned) [Compound 29] | 177 | 5.0 (≈ 7.07 µM) |  | 2.2 (≈ 3.11 µM) |  | 0.8 (≈ 1.13 µM) |  |  |  |
| COc1nc2ccc(Br)cc2cc1C(c1ccccc1)C(O)(CCCCN1CC2CC1CN2CCc1ccccc1)c1ccc2ccccc2c1 (single isomer, unassigned) [Compound 25] | 137 | 2.3 (≈ 3.1 µM) |  | 1.7 (≈ 2.29 µM) |  | 0.5 (≈ 0.675 µM) |  |  |  |
| COc1nc2ccc(Br)cc2cc1C(c1ccccc1)C(O)(CCCCN(C)C(=N)N)c1ccccc1 (single isomer, unassigned) [Compound 2] |  | 1.8 (≈ 3.21 µM) |  | 1.8 (≈ 3.21 µM) |  | 2.2 (≈ 3.92 µM) | 2.5 (≈ 4.45 µM) |  |  |
| COc1nc2ccc(Br)cc2cc1C(c1ccccc1)C(O)(CCCCN1CCC(N2CCCCC2)CC1)CCc1ccccc1 (single isomer, unassigned) [Compound 11] | 164 | 10.9 (≈ 15.9 µM) |  | 12.2 (≈ 17.8 µM) |  | 10.9 (≈ 15.9 µM) |  |  |  |
| COc1nc2ccc(Br)cc2cc1C(c1ccccc1)C(O)(CCCCN(C)C(=N)N)c1ccccc1 (single isomer, unassigned) [Compound 1] |  |  | 2.2 (≈ 3.92 µM) |  | 4 (≈ 7.12 µM) |  |  | 2 (≈ 3.56 µM) | 1.8 (≈ 3.21 µM) |
| COc1nc2ccc(Br)cc2cc1C(c1ccccc1)C(O)(CCCCN1CCCN(C)CC1)c1ccc2ccccc2c1 (centres unmarked) [Compound 34d] |  | 2.1 (≈ 3.22 µM) |  | 2.1 (≈ 3.22 µM) |  | 0.4 (≈ 0.613 µM) |  |  |  |
| COc1nc2ccc(Br)cc2cc1C(c1ccccc1)C(O)(CCCCN1CCC(N2CCCCC2)CC1)CCc1ccccc1 (single isomer, unassigned) [Compound 10] |  | 2.2 (≈ 3.21 µM) |  | 2.4 (≈ 3.5 µM) |  | 2.2 (≈ 3.21 µM) |  |  |  |
| COc1nc2ccc(Br)cc2cc1C(c1ccccc1)C(O)(CCCCN(C)CCc1ccccn1)c1ccccc1 (centres unmarked) [Compound 9] |  | 2.0 (≈ 3.2 µM) |  | 2.0 (≈ 3.2 µM) |  | 2.2 (≈ 3.52 µM) |  |  |  |
| COc1nc2ccc(Br)cc2cc1C(c1ccccc1)C(O)(CCCCN1CCN(C2CCN(Cc3ccccc3)C2)CC1)c1ccc2ccccc2c1 (single isomer, unassigned) [Compound 31] |  | 12.4 (≈ 15.8 µM) |  | 4.4 (≈ 5.61 µM) |  | 15.6 (≈ 19.9 µM) |  |  |  |
| COc1nc2ccc(Br)cc2cc1C(c1ccccc1)C(O)(CCCCN1CC2CC1CN2Cc1ccccc1)CCc1ccccc1 (single isomer, unassigned) [Compound 13] |  | 2.2 (≈ 3.12 µM) |  | 5.6 (≈ 7.95 µM) |  | 2.5 (≈ 3.55 µM) |  |  |  |
| COc1nc2ccccc2cc1C(c1ccccc1)C(O)(CCCCN1CC2CC1CN2)c1ccc2ccccc2c1 (single isomer, unassigned) [Compound 18] |  |  | 1.8 (≈ 3.23 µM) |  |  |  |  | 1.8 (≈ 3.23 µM) | 1.8 (≈ 3.23 µM) |
| COc1nc2ccc(Br)cc2cc1C(c1ccccc1)C(O)(CCCCN1CCCNCC1)c1ccc2ccccc2c1 (single isomer, unassigned) [Compound 33] | 119 |  | 0.5 (≈ 0.783 µM) |  |  |  |  | 2 (≈ 3.13 µM) | 0.4 (≈ 0.626 µM) |
| COc1nc2ccc(Br)cc2cc1C(c1ccccc1)C(O)(CCCCN(C)C1CCN(C)CC1)c1ccccc1 (single isomer, unassigned) [Compound 4] |  |  | 2 (≈ 3.24 µM) |  |  |  |  | 9.8 (≈ 15.9 µM) | 2 (≈ 3.24 µM) |
| COc1nc2ccccc2cc1C(c1ccccc1)C(O)(CCCCN1CC2CC1CN2)c1ccc2ccccc2c1 (single isomer, unassigned) [Compound 19] |  | 1.8 (≈ 3.23 µM) |  | 1.6 (≈ 2.87 µM) |  | 2.2 (≈ 3.94 µM) |  |  |  |
| COc1nc2ccc(Br)cc2cc1C(c1ccccc1)C(O)(CCCCN1CCCN(C)CC1)c1ccc2ccccc2c1 (centres unmarked) [Compound 34b] |  |  |  | 2.1 (≈ 3.22 µM) |  | 2.1 (≈ 3.22 µM) |  | 2.1 (≈ 3.22 µM) |  |
| COc1nc2ccc(Br)cc2cc1C(c1ccccc1)C(O)(CCCCN1CCC(N2CCCCC2)CC1)c1ccc2ccccc2c1 (single isomer, unassigned) [Compound 28] |  | 2.2 (≈ 3.11 µM) |  |  |  | 2.8 (≈ 3.96 µM) |  |  | 2.5 (≈ 3.54 µM) |
| COc1nc2ccc(Br)cc2cc1C(c1ccccc1)C(O)(CCCCN1CC2CC1CN2Cc1ccccc1)c1ccccc1 (single isomer, unassigned) [Compound 49] |  | 2.1 (≈ 3.1 µM) |  | 2.1 (≈ 3.1 µM) |  | 0.3 (≈ 0.443 µM) |  |  |  |
| COc1nc2ccc(Br)cc2cc1C(c1ccccc1)C(O)(CCCCN1CC2CC1CN2Cc1ccccc1)c1ccc2ccccc2c1 (single isomer, unassigned) [Compound 20] |  | 11.5 (≈ 15.8 µM) | 0.6 (≈ 0.826 µM) | 2.3 (≈ 3.16 µM) |  |  |  |  |  |
| COc1nc2ccc(Br)cc2cc1C(c1ccc(Cl)cc1)C(O)(CCCCN1CC2CC1CN2Cc1ccccc1)c1ccc2ccccc2c1 (single isomer, unassigned) [Compound 36] |  | 53.9 (≈ 70.8 µM) | 0.9 (≈ 1.18 µM) |  |  |  |  |  | 2.7 (≈ 3.55 µM) |
| COc1ccc(N2CCN(CCCCC(O)(c3ccc4ccccc4c3)C(c3ccccc3)c3cc4cc(Br)ccc4nc3OC)CC2)cc1 (single isomer, unassigned) [Compound 26] |  |  | 18.4 (≈ 25.2 µM) |  |  |  |  | 18.4 (≈ 25.2 µM) | 18.4 (≈ 25.2 µM) |
| COc1nc2ccc(Br)cc2cc1C(c1ccccc1)C(O)(CCCCN1CC2CC1CN2CCc1ccccc1)c1ccc2ccccc2c1 (single isomer, unassigned) [Compound 24] |  | 11.7 (≈ 15.8 µM) |  |  |  | 2.1 (≈ 2.83 µM) |  |  | 2.3 (≈ 3.1 µM) |
| COc1nc2ccc(Br)cc2cc1C(c1ccccc1)C(O)(CCCCN1CC2CC1CN2Cc1ccccc1)CCCc1ccccc1 (single isomer, unassigned) [Compound 14] |  |  | 2.6 (≈ 3.62 µM) |  |  |  |  | 11.4 (≈ 15.9 µM) | 3.6 (≈ 5.01 µM) |
| COc1nc2ccc(Br)cc2cc1C(c1ccccc1)C(O)(CCCCc1ccccc1)CCCCN1CC2CC1CN2Cc1ccccc1 (single isomer, unassigned) [Compound 17] |  | 2.3 (≈ 3.14 µM) |  | 0.7 (≈ 0.955 µM) |  | 0.8 (≈ 1.09 µM) |  |  |  |
| COc1nc2ccc(Br)cc2cc1C(c1ccccc1)C(O)(CCCCN1CCN(C2CCN(Cc3ccccc3)C2)CC1)c1ccc2ccccc2c1 (single isomer, unassigned) [Compound 30] |  | 2.5 (≈ 3.19 µM) |  | 2.5 (≈ 3.19 µM) |  | 2.5 (≈ 3.19 µM) |  |  |  |
| COc1nc2ccc(Br)cc2cc1C(c1ccccc1)C(O)(CCCCc1ccccc1)CCCCN1CC2CC1CN2Cc1ccccc1 (single isomer, unassigned) [Compound 16] |  | 7.3 (≈ 9.96 µM) | 1.5 (≈ 2.05 µM) |  |  |  |  |  | 0.6 (≈ 0.819 µM) |
